Experiments:
Type in all cases: in vivo, human
[1] = Example I: blood glucose levels and side effects in a subject with type 2 diabetes; settings: person, blood glucose 17 to 19 mmol/L at diagnosis, first prescribed drug
[2] = Example II: morning (fasting) and two-hour after eating blood glucose readings, A1c and side effects in a subject with type 2 diabetes; settings: 500 mg once a day
Procedure: A subject had been diagnosed with type 2 diabetes. Their fasting glucose reading was 11.6 mmol/L and A1c was 8.9%. Due to arthritis in their knee, exercise was not an option. […] They were prescribed 500 mg of Ratio-Metformin once a day. […] According to the endocrinologist, the subject's morning readings (fasting blood glucose levels) were in the range from 8.1 to 10.8 mmol/L, and their two-hour after eating readings were 10 to 13.8 mmol/L.
Due to the adverse side effects of Metformin, the subject decided to stop taking the prescribed daily Metformin and replace it with the composition and method of the present invention. […]
The first cycle was about three months in length. […] Within a week that the subject was treated with the method of the invention, their morning readings were in the 4 to 6.5 mmol/L range and their two hours after eating range were well below 9 mmol/L. It should be noted that, for three weeks during this period, the patient was on vacation in France, enjoying fine French food and wine. A month after finishing the first cycle, the subject took a second fasting sugar test and a A1c test, the readings were 6.6 mmol/L and 6%, respectively.
The subject was treated with three cycles of the composition and method of the present invention. […] Their morning readings were in the range of 4.3 to 6.5 mmol/L, and their two hour after eating readings were in the range of 6 to 8.5 mmol/L. […]

[3] = Example III: blood glucose levels in a morbidly obese subject with type 2 diabetes; settings: person, 380 lb, on traditional medication
Procedure: A subject weighed 380 lb was diagnosed with type 2 diabetes and was considered morbidly obese. The subject was prescribed Metformin. With traditional medication their blood glucose levels were at about 19 mmol/L, well above the normal range. Although the subject was considered for gastric bypass surgery, their medical doctors would not operate because their blood glucose could not be controlled.
The subject started taking 25 mg each of Gudmar, Kalijiri, Kariyatu, and Neempan tablets three times a day. Two weeks after the subject started the taking the herbal composition of the invention, the subject's blood glucose levels had dropped to 5.5 mmol/L, within the normal range. As a result, the subject was able to proceed with the surgery.

| Compound | blood glucose levels (effect in words) [1] | side effect (in words) [2] | blood glucose levels (effect in words) ([2]; fasting glucose 11.6 mmol/L and A1c 8.9% at diagnosis) | blood glucose levels [3] |
| --- | --- | --- | --- | --- |
| CN(CCOc1ccc(CC2SC(=O)NC2=O)cc1)c1ccccn1 (stereo not shown) [Avandia, rosiglitazone] | did not reduce their blood glucose levels to the normal range |  |  |  |
| CN(C)C(=N)N=C(N)N [Metformin] |  | left them feeling confused, “in a fog.” | did reduce their blood glucose levels | about 19 mmol/L |

From US20120003339A1, “COMPOSITIONS AND METHODS FOR CONTROLLING BLOOD GLUCOSE LEVELS” (priority 2010, published 2012)
